According to patent publication US20130190275A1, “COMBINED THERAPIES OF ANTIPSYCHOTIC DRUGS AND TETRACYCLINES IN THE TREATMENT OF PSYCHIATRIC DISORDERS” (MOR RESEARCH APPLICATIONS LTD., priority 2006, published 2013):

Legend:
[1] = system: patients who experience first psychotic episode; experiment: CANTAB Stockings of Cambridge (SOC), adjuvant study; format: in vivo, human; conditions: atypical antipsychotic drug+minocycline 200 mg/day vs +placebo; p=0.001
Protocol: (§1) The study was carried out in patients who experience first psychotic episode, and has followed the patient for a total duration of 6 months. As the study examines Minocycline as an adjuvant drug, the sample includes patients receiving one of the following atypical anti-psychotic drugs: Risperdal, Zyprexa, Geodon, Seroquel, and Leponex. […] In addition, the subjects were assessed by a battery of computerized neuropsychological tests (CANTAB—Cambridge Neuropsychological Test Automated Battery), measuring attention, memory, and planning. Executive function was tested by two tasks of the CANTAB: planning was tested by a computerized modification of the Tower of London, and working memory by a spatial working memory task. Minocycline was given as an add-on therapy. […] Clinical status was evaluated by the aforementioned scales at the onset of the study, every week for the first 6 weeks, and then once a month for the rest of the study period. Cognitive capabilities were assessed by the neuropsychological battery of tests according to the following schedule: upon initiation of the study (referred to as visit 1 in FIGS. 5-8), 3 months (referred to as visit 2 in FIGS. 5-8), and 6 months (referred to as visit 3 in FIGS. 5-8) after the start of the study. […]

MK801 treated rats = experiment: Pre-Pulse Inhibition (PPI) paradigm, MK801 animal model; format: in vivo, rat
Protocol: Acoustic Startle Response (ASR) and Pre-Pulse Inhibition (PPI): Both experimental paradigms were performed in a room that was adjacent to the laboratory facilities and the animal stall and that was not used for other experiments. The animals were tested in squad of two with startle chambers counterbalanced across the different experimental groups. Startle response and prepulse inhibition were measured using two ventilated startle chambers (SR-LAB system, San Diego Instruments, San Diego, Calif.). Each chamber consisted of a Plexiglas cylinder resting on a platform inside a sound-attenuated, ventilated chamber. A high-frequency loudspeaker inside the chamber produced both a continuous broadband background noise of 70 dB and the various acoustic stimuli. Movement inside the tube was detected by a piezoelectric accelerometer below the frame. The amplitude of the whole body startle to an acoustic pulse was defined as the average of 100 one-msec accelerometer readings collected from pulse onset. These signals were then digitized and stored by a computer. Sound levels within each test chamber were measured routinely using a sound level meter (Radio Shack) to ensure consistent presentation. The SR-LAB calibration unit was used routinely to ensure consistent stabilimeter sensitivity between test chambers and over time (Swerdlow and Geyer, 1998, Schizophrenia Bulletin, 24(2), 285-301).
Fifteen minutes before the behavioral procedures conducted at the fourth day, the subject was injected i.p. with an 0.1 mg/kg dose of MK801 or saline, for a total volume of 1 ml per kg of body weight. Next, the subjects passed the three behavioral procedures, described in the following paragraphs.
ASR and PPI were measured using two startle chambers, with each chamber consisting of a Plexiglas cylinder resting on a platform inside a sound-attenuated, ventilated chamber (see also materials section). The animals were tested in pairs with startle chambers counterbalanced across the different experimental groups.
PPI of the startle response was used as a measure of sensorimotor gating, with the startle chambers used to assess the ability of prepulse stimuli to block the startle response. […]
Pre-Pulse Inhibition (PPI): Startle magnitude is expressed in all the procedures as arbitrary units. Percent PPI (% PPI) was calculated as the mean startle magnitude to stimulus-alone minus the mean startle magnitude to prepulse-stimulus trials, all divided by the mean stimulus-alone trials, and multiplied by 100. The overall mean % PPI was calculated for the four prepulse intensities (72, […], 80, 84 dB). Results were analyzed by two-way ANOVA with a between-subject measure of ‘group’ (difference the treatment groups) and ‘prepulse intensity’ (72, 76, 80, 84 dB).

[2] = system: patients who experience first psychotic episode; experiment: CANTAB Spatial Working Memory (SWM), adjuvant study; format: in vivo, human; conditions: atypical antipsychotic drug+minocycline 200 mg/day vs +placebo
Protocol: as §1

## CN(C)c1ccc(O)c2c1C[C@H]1C[C@H]3[C@H](N(C)C)C(O)=C(C(N)=O)C(=O)[C@@]3(O)C(O)=C1C2=O [minocycline]
[1]
  SOC number of problems solved in minimum moves: improved significantly more than the placebo group
MK801 treated rats; drug+MK801 0.1 mg/kg i.p., minocycline 35 mg/kg x 3 days pretreatment, haloperidol 0.4 mg/kg i.p.
  percent of PPI (% PPI): able to reverse the deficits caused by the MK801 treatment
MK801 treated rats; minocycline alone (no MK801) vs saline
  percent of PPI (% PPI): no statistically significant differences
[2]; p<0.0001
  SWM between errors: improved significantly more than the placebo group
[2]; p<0.05
  SWM strategy score: improved significantly more than the placebo group
